Reference: patent US20050267077A1 (priority 2004, published 2005)

What was measured:
[1] = cited from earlier work
rats = test: Object Recognition Task (episodic memory), 6 hour delay; conditions: for disruption of behavior: first four rats; for performance in the object recognition task: 6 h delay; for Recognition Score: vehicle 60%
Procedure: It is based on rodents' natural preference for exploring novel objects over familiar objects. The experimental protocol is as follows:
The experiment takes place over a total of 4 days. Objects used for testing included square 60-mL clear glass tablet bottles with a black phenolic cap (“bottle”) or […] high, 1¼-inch interior diameter aluminum electrical metal tubing conduit couplings (“conduit”). On the first 3 days, the rat was placed into a test box for 15 minutes of habituation. On the fourth day, two identical copies of the same object were arranged in the box, one in each of the near corners about ½ inch from the walls—two bottles for half of the rats, two conduits for the other half. The rat was brought to the test room, placed in the middle of the box facing the center of the back wall, and allowed to explore the objects for a 3-minute information trial, after which it was returned to its home cage and to the housing room. After a specified delay, one copy of the original object (“familiar,” not the copy already encountered) and one copy of the other object (“novel”) were arranged in the near corners, with positions counterbalanced to avoid bias, and the rat was placed back in the box for a recognition trial. […] The result of scoring is the time spent with the novel object, expressed as a %-age number (the “Recognition Score”)
Normal rats spend more time exploring the novel object, indicating memory for the sample object. Increases in the length of the delay, however, reduce the rat's ability to distinguish between the two objects in the recognition trial. For the testing of cognition-enhancing agents, a delay or inter-trial interval (ITI) is typically chosen at which complete forgetting normally occurs (i.e. where the time spent exploring both the novel and familiar object is equal), as this allows for considerable room for improvement in performance.
Both drugs were administered by intraperitoneal (IP) injection.
To generate a dose-effect curve for galantamine, various doses of this compound were administered to rats by IP injection 30 minutes prior to the information trial and compared to vehicle (0.5%-methyl cellulose)-treated controls (FIG. 7A).

Long-Evans rats = test: 8 hour retention test on a twelve-arm radial maze (spatial memory); format: in vivo, rat; conditions: 60 min prior to information session, vs vehicle (p<0.02)
Procedure: 12-arm maze test: Behavioral testing was conducted by an experimenter who was blind to drug treatment. 12 Long-Evans rats trained to use a win-shift strategy were given an information trial. During the information trial, 5 of the 12 arms of the 12 arm maze were blocked so that rats were not able to consume food from those blocked arms but could obtain food from each of the 7 open arms. After this session rats were moved to their home cage and placed back in the animal holding room. […] A retroactive memory error is made when the rat enters an arm that was […] on the information trial.
. Physiological saline (NaCl) was used as vehicle. […]

CCN(C)C(=O)Oc1cccc([C@H](C)N(C)C)c1 [rivastigmine]
half-life in humans [1]: about 1.5 h
disruption of behavior (rats; rivastigmine 1 mg/kg IP): grossly disrupted behavior
effect on memory in the object recognition task (rats; rivastigmine 0.01, 0.017, 0.03, 0.056, 0.17 and 0.3 mg/kg IP, vs vehicle): no significant effect on memory
performance in the object recognition task (rats; rivastigmine 0.1 IP, 30 min prior, vs vehicle (p=0.056)): approached a significant improvement in performance
Recognition Score (rats; rivastigmine alone 0.01 mg/kg): 55%
Recognition Score (rats; rivastigmine alone 0.017 mg/kg): 59%

CCCCP(=O)(O)CCCN [ABPA, 3-aminopropyl-(n-butyl)-phosphinic acid]
performance in the object recognition task (rats; ABPA 3 and 30 mg/kg IP, 30 min prior to information trial, vs saline): no beneficial effect
performance in the object recognition task (rats; ABPA 10, 100, 170, and 300 mg/kg IP, 30 min prior to information trial, vs saline): significantly enhanced performance
Recognition Score (rats; ABPA alone 3 mg/kg, Example 5 rivastigmine interaction study): 58%
Recognition Score (rats; ABPA alone 3 mg/kg, Example 6 galantamine interaction study): 58%
retention test performance on the 12-arm maze (Long-Evans rats; 150 mg/kg ABPA IP): improved performance

COc1ccc2c3c1O[C@H]1C[C@@H](O)C=C[C@@]31CCN(C)C2 [galantamine]
half-life in humans [1]: 5 to 6 h
disruption of behavior (rats; galantamine 3 mg/kg IP): gross disruption of behavior
Recognition Score (rats; galantamine alone 0.17 mg/kg): 55%
Recognition Score (rats; galantamine alone 0.3 mg/kg): 62%

COc1cc2c(cc1OC)C(=O)C(CC1CCN(Cc3ccccc3)CC1)C2 (racemic) [donepezil, (±)-2,3-dihydro-5,6-dimethoxy-2-[[1-(phenylmethyl)-4-piperidinyl]methyl]-1H-inden-1-one]
performance in the object recognition task (rats; donepezil 1.7 mg/kg IP, 30 min prior to information trial): significantly improved performance
adverse side effects in the rat (rats; donepezil doses higher than 1.7 mg/kg IP): began to produce adverse side effects
retention test performance on the 12-arm maze (Long-Evans rats; 3 mg/kg donepezil IP): improved performance
